≈ marks a conversion by molar mass, not a printed value.
Assays:
M. suipneumoniae MS 16 = test: MIC against mycoplasma in vitro; format: cell-based; conditions: Mesomycoplasma hyopneumoniae, MS16, 144 h; M. suipneumoniae MS 16; 6 days, 37° C.; read-out: MIC
[1] = tested on: M. suipneumoniae PW/C/210; test: MIC against mycoplasma in vitro; format: cell-based; conditions: Mesomycoplasma hyopneumoniae, 144 h
[2] = tested on: Staph. aureus B4 (pen. resistant); test: MIC against veterinary bacteria in vitro; conditions: Staphylococcus aureus, 18 h
Experimental: (§1) The activity of the compounds of the Examples against various veterinarily important bacteria, was assayed in vitro using two-fold serial dilutions in Diagnostic Sensitivity Test Agar inoculated with 10^4 organisms.

S. typhimurium S18 = test: MIC against veterinary bacteria in vitro; conditions: Salmonella enterica, TYPHIMURIUM, 18 h
Experimental: as §1

[3] = tested on: M. bovigenitalium ATCC 14173; test: MIC against mycoplasma in vitro; format: cell-based; conditions: 144 h
[4] = tested on: Erysipelothrix rhusiopathiae NCTC 8163; test: MIC against veterinary bacteria in vitro; conditions: Erysipelothrix rhusiopathiae, NCTC8163, 18 h
Experimental: as §1

Sarcina lutea 8340 = test: MIC against human bacteria in vitro; format: cell-based; conditions: Micrococcus luteus; Sarcina lutea 8340; 5% chocolated horse blood agar, 18 hours; read-out: MIC
K. aerogenes A = test: MIC against human bacteria in vitro; format: cell-based; conditions: Klebsiella aerogenes; K. aerogenes A; 5% chocolated horse blood agar, 18 hours; read-out: MIC
M. bovis NCTC 10131 = test: microbe, parasite or virus in culture; format: cell-based; conditions: NCTC10131, 144 h
M. suipneumoniae NB12 = test: MIC against mycoplasma in vitro; format: cell-based; conditions: Mesomycoplasma hyopneumoniae, NB12, 144 h
[5] = tested on: M. suipneumoniae J2206/183^b; test: MIC against mycoplasma in vitro; format: cell-based; conditions: Mesomycoplasma hyopneumoniae, 144 h; M. suipneumoniae J2206/183^b; 6 days, 37° C.; read-out: MIC
M. suipneumoniae TAM 6N = test: MIC against mycoplasma in vitro; format: cell-based; conditions: Mesomycoplasma hyopneumoniae, TAM6N, 144 h
Strep. agalactiae 2788-B = test: MIC against human bacteria in vitro; format: cell-based; conditions: Streptococcus agalactiae; Strep. agalactiae 2788-B; 5% chocolated horse blood agar, 18 hours; read-out: MIC
[6] = tested on: Strep. suis (group D) SPS11; test: MIC against veterinary bacteria in vitro; conditions: Streptococcus suis, 18 h
Experimental: as §1

P. mirabilis 889 = test: MIC against human bacteria in vitro; format: cell-based; conditions: Proteus mirabilis; P. mirabilis 889; 5% chocolated horse blood agar, 18 hours; read-out: MIC
Bord. bronchiseptica B08 = test: MIC against veterinary bacteria in vitro; conditions: Bordetella bronchiseptica, B08, 18 h
Experimental: as §1

[7] = tested on: Pasteurella multocida 1633; test: MIC against human bacteria in vitro; format: cell-based; conditions: Pasteurella multocida 1633; 5% chocolated horse blood agar, 18 hours; read-out: MIC
[8] = tested on: Corynebacterium pyogenes CY1; test: MIC against veterinary bacteria in vitro; conditions: CY1, 18 h
Experimental: as §1

M. suipneumoniae Str. 11 = test: MIC against mycoplasma in vitro; format: cell-based; conditions: Mesomycoplasma hyopneumoniae, STR.11, 144 h
Strep. dysgalactiae SPD1 = test: MIC against veterinary bacteria in vitro; conditions: Streptococcus dysgalactiae, SPD1, 18 h
Experimental: as §1

M. hyorhinis ATCC 23234 = test: MIC against mycoplasma in vitro; format: cell-based; conditions: Mesomycoplasma hyorhinis, ATCC23234, 144 h
Staph. aureus Oxford [9] = test: MIC against veterinary bacteria in vitro; conditions: Staphylococcus aureus, 18 h
Experimental: as §1

Staph. aureus W2827 = test: MIC against human bacteria in vitro; format: cell-based; conditions: Staphylococcus aureus; Staph. aureus W2827; 5% chocolated horse blood agar, 18 hours; read-out: MIC
M. suipneumoniae UCD 1 = test: MIC against mycoplasma in vitro; format: cell-based; conditions: Mesomycoplasma hyopneumoniae, UCD1, 144 h
[10] = tested on: M. suipneumoniae NCTC 10110; test: MIC against mycoplasma in vitro; format: cell-based; conditions: Mesomycoplasma hyopneumoniae, NCTC10110, 144 h; M. suipneumoniae NCTC 10110; 6 days, 37° C.; read-out: MIC
Strep. faecalis I = test: MIC against human bacteria in vitro; format: cell-based; conditions: Enterococcus faecalis; Strep. faecalis I; 5% chocolated horse blood agar, 18 hours; read-out: MIC
M. hyorhinis ATCC 25021 = test: MIC against mycoplasma in vitro; format: cell-based; conditions: Mesomycoplasma hyorhinis, ATCC25021, 144 h
Staph. aureus Oxford [11] = test: MIC against human bacteria in vitro; format: cell-based; conditions: Staphylococcus aureus; Staph. aureus Oxford; 5% chocolated horse blood agar, 18 hours; read-out: MIC
M. dispar NCTC 10125 = test: MIC against mycoplasma in vitro; format: cell-based; conditions: 144 h; M. dispar NCTC 10125; 6 days, 37° C.; read-out: MIC
M. gallisepticum S6 = test: MIC against mycoplasma in vitro; format: cell-based; conditions: Mycoplasmoides gallisepticum, 144 h; M. gallisepticum S6; 6 days, 37° C.; read-out: MIC
M. suipneumoniae JF 435 = test: MIC against mycoplasma in vitro; format: cell-based; conditions: Mesomycoplasma hyopneumoniae, JF435, 144 h
[12] = tested on: Staph. aureus 152 (pen. sens); test: MIC against veterinary bacteria in vitro; conditions: Staphylococcus aureus, 18 h
Experimental: as §1

M. suipneumoniae HK(2) = test: MIC against mycoplasma in vitro; format: cell-based; conditions: Mesomycoplasma hyopneumoniae, 144 h

C/C(=C\c1ncc(CCCCCCCCO)o1)C[C@@H]1OC[C@H](C[C@@H]2O[C@H]2[C@@H](C)[C@H](C)O)[C@@H](O)[C@H]1O [Example 19, 5-(8-Hydroxyoctyl)-2-(1-normon-2-yl) oxazole A]
MIC (M. suipneumoniae MS 16): 0.5 µg/mL (≈ 1.01 µM) | MIC [1]: 0.25 µg/mL (≈ 0.504 µM) | MIC [2]: 1.25 µg/mL (≈ 2.52 µM) | MIC (S. typhimurium S18): > 80 µg/mL | MIC [3]: 0.1 µg/mL (≈ 0.202 µM) | MIC [4]: > 80 µg/mL | MIC (Sarcina lutea 8340): 128 µg/mL (≈ 258 µM) | MIC (K. aerogenes A): > 128 µg/mL | MIC (M. bovis NCTC 10131): 0.025 µg/mL (≈ 0.0504 µM) | MIC (M. suipneumoniae NB12): 1 µg/mL (≈ 2.02 µM) | MIC [5]: 5 µg/mL (≈ 10.1 µM) | MIC (M. suipneumoniae TAM 6N): 2.5 µg/mL (≈ 5.04 µM) | MIC (Strep. agalactiae 2788-B): 16 µg/mL (≈ 32.3 µM) | MIC [6]: 80 µg/mL (≈ 161 µM) | MIC (P. mirabilis 889): > 128 µg/mL | MIC (Bord. bronchiseptica B08): > 80 µg/mL | MIC [7]: 32 µg/mL (≈ 64.6 µM) | MIC [8]: > 80 µg/mL | MIC (M. suipneumoniae Str. 11): 1 µg/mL (≈ 2.02 µM) | MIC (Strep. dysgalactiae SPD1): 2.5 µg/mL (≈ 5.04 µM) | MIC (M. hyorhinis ATCC 23234): 1 µg/mL (≈ 2.02 µM) | MIC (Staph. aureus Oxford [9]): 2.5 µg/mL (≈ 5.04 µM) | MIC (Staph. aureus W2827): 4 µg/mL (≈ 8.07 µM) | MIC (M. suipneumoniae UCD 1): 2.5 µg/mL (≈ 5.04 µM) | MIC [10]: 5 µg/mL (≈ 10.1 µM) | MIC (Strep. faecalis I): > 128 µg/mL | MIC (M. hyorhinis ATCC 25021): 1 µg/mL (≈ 2.02 µM) | MIC (Staph. aureus Oxford [11]): 4 µg/mL (≈ 8.07 µM) | MIC (M. dispar NCTC 10125): 0.5 µg/mL (≈ 1.01 µM) | MIC (M. gallisepticum S6): 10 µg/mL (≈ 20.2 µM) | MIC (M. suipneumoniae JF 435): 2.5 µg/mL (≈ 5.04 µM) | MIC [12]: 1.25 µg/mL (≈ 2.52 µM) | MIC (M. suipneumoniae HK(2)): 2.5 µg/mL (≈ 5.04 µM)

From US5041567A, “Antibacterial monic acid derivatives” (Beecham Group plc, priority 1982, dated 1991)
